# Assay results: publication PMC10584170, “Machine learning-based phenotypic imaging to characterise the targetable biology of Plasmodium falciparum male gametocytes for the development of transmission-blocking antimalarials” (PLOS Pathogens, 2023)
# Tests used:
# [1] = test system: P. falciparum male gametocytes; experiment: P. falciparum Dual Gamete Formation Assay (PfDGFA), male readout (exflagellation); type: cell-based, Plasmodium falciparum NF54; conditions: for Average inhibition male (%): average of replicates; for % inhibition male (individual replicates) R1: replicate R1; for % inhibition male (individual replicates) R3: replicate R3; for % inhibition male (individual replicates) R4: replicate R4; for Activity: hit = >50% inhibition in male or female readout in at least 3 replicates, 0 = no class assigned
# In short: (§1)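 Mature NF54 gametocytes (day 14) were incubated with compound for 24 h at 37°C under 1% O2/3% CO2, then triggered with xanthurenic acid ookinete medium plus Cy3-anti-Pfs25. Exflagellation was imaged by brightfield; after a further 24 h at 28°C, Pfs25-positive female gametes were imaged by fluorescence and counted by automated image analysis.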
# [2] = test system: P. falciparum female gametocytes; experiment: P. falciparum Dual Gamete Formation Assay (PfDGFA), female readout (Pfs25-positive female gametes); type: cell-based, Plasmodium falciparum NF54; conditions: for Average inhibition female (%): average of replicates; for % inhibition female (individual replicates) R1: replicate R1; for % inhibition female (individual replicates) R3: replicate R3; for % inhibition female (individual replicates) R4: replicate R4
# In short: as §1
# [3] = PfDGFA at 2µM, 24h preincubation with gametocytes
# [4] = number of replicates with >50% inhibition in the male readout, 2µM
# [5] = number of replicates with >50% inhibition in the female readout, 2µM
# [6] = 2µM, 24h preincubation with gametocytes prior to induction of gametogenesis
# [7] = 2µM, 24h preincubation, number of replicates with >50% inhibition in the male readout
# [8] = 2µM, 24h preincubation, number of replicates with >50% inhibition in the female readout
# [9] = 2µM, 24h preincubation, hits selected on >50% inhibition in the male readout across replicates
# [10] = PfDGFA at 2µM, 24h preincubation
# [11] = 2µM, 24h preincubation, hits selected on >50% inhibition in the female readout across replicates
# [12] = PfDGFA at 2µM, 24h preincubation with gametocytes prior to induction of gametogenesis
Structure (SMILES),"Average inhibition male (%) [1, 6]","% inhibition male (individual replicates) R1 [1, 6]","% inhibition male (individual replicates) R4 [1, 6]","Average inhibition female (%) [2, 6]","% inhibition female (individual replicates) R1 [2, 6]","% inhibition female (individual replicates) R3 [2, 6]","% inhibition female (individual replicates) R4 [2, 6]","HitlevelM [1, 9]","Activity [1, 10]","HitlevelF [2, 11]","% inhibition male (individual replicates) R3 [1, 6]",other results
COc1ccc(CNC2CCN(C)CC2)cc1-c1ccc(S(=O)(=O)NCc2ccccc2)c(C)c1.O=C(O)C(F)(F)F [TCMDC-132480],–,–,–,–,–,–,–,–,–,–,–,"Average inhibition male (%) [1, 3]: 78.0%; % inhibition male (individual replicates) R1 [1, 3]: 73.4%; % inhibition male (individual replicates) R3 [1, 3]: 67.7%; % inhibition male (individual replicates) R4 [1, 3]: 91.6%; HitlevelM [1, 4]: 4; Average inhibition female (%) [2, 3]: 36.3%; % inhibition female (individual replicates) R1 [2, 3]: 30.7%; % inhibition female (individual replicates) R3 [2, 3]: 36.3%; % inhibition female (individual replicates) R4 [2, 3]: 41.6%; HitlevelF [2, 5]: 0"
CCS(=O)(=O)c1ccc(-c2cnc3[nH]cc(-c4ccc(N)cc4)c3c2)cc1 [TCMDC-132582],35.5%,70.7%,-32.7%,24.2%,25.6%,29.8%,22.2%,–,–,–,–,"HitlevelM [1, 7]: 2; HitlevelF [2, 8]: 0"
Cc1cccc2nc(-c3ccc(-c4cccc(CNC5CCN(C)CC5)c4)s3)[nH]c12.O=C(O)C(F)(F)F [TCMDC-132736],63.8%,48.5%,67.2%,18.0%,17.1%,23.2%,22.3%,2,0,0,–,–
CN(CCN)Cc1ccc(-c2ccc(-c3nc4cc(C(F)(F)F)ccc4[nH]3)s2)cc1.O=C(O)C(F)(F)F [TCMDC-132821],-7.8%,-14.8%,-7.6%,8.7%,4.7%,20.4%,7.1%,0,0,0,–,–
CNCCNCc1ccc(-c2ccc(-c3nc4cc(F)ccc4[nH]3)s2)cc1.O=C(O)C(F)(F)F [TCMDC-132829],–,–,–,–,–,–,–,–,–,–,–,"Average inhibition male (%) [1, 3]: 66.0%; % inhibition male (individual replicates) R1 [1, 3]: 54.3%; % inhibition male (individual replicates) R4 [1, 3]: 78.8%; HitlevelM [1, 4]: 3; Average inhibition female (%) [2, 3]: 12.3%; % inhibition female (individual replicates) R1 [2, 3]: 11.4%; % inhibition female (individual replicates) R3 [2, 3]: 10.0%; % inhibition female (individual replicates) R4 [2, 3]: 9.0%; HitlevelF [2, 5]: 0"
CNCCNCc1cccc(-c2ccc(-c3nc4cc(C(F)(F)F)ccc4[nH]3)s2)c1.O=C(O)C(F)(F)F [TCMDC-132830],36.6%,35.0%,60.2%,26.5%,19.8%,8.2%,49.8%,–,–,–,16.5%,"HitlevelM [1, 7]: 1; HitlevelF [2, 8]: 0"
CNCCNCc1ccc(-c2ccc(-c3nc4cc(C(F)(F)F)ccc4[nH]3)cc2)cc1.O=C(O)C(F)(F)F [TCMDC-132833],23.6%,9.5%,50.2%,17.0%,21.1%,25.6%,19.1%,1,0,0,12.3%,–
CNCCNCc1cccc(-c2ccc(-c3nc4cc(C(F)(F)F)ccc4[nH]3)cc2)c1.O=C(O)C(F)(F)F [TCMDC-132834],47.7%,40.3%,68.9%,13.1%,23.3%,8.2%,10.1%,2,0,0,3.4%,–
CNCCNCc1ccc(-c2cccc(-c3nc4cc(F)ccc4[nH]3)c2)cc1.O=C(O)C(F)(F)F [TCMDC-132836],–,–,–,–,–,–,–,–,–,–,–,"% inhibition male (individual replicates) R1 [1, 12]: -5.6%; % inhibition male (individual replicates) R4 [1, 12]: -19.2%; Average inhibition male (%) [1, 10]: -13.9%; % inhibition female (individual replicates) R1 [2, 12]: -0.65%; % inhibition female (individual replicates) R3 [2, 12]: 8.4%; % inhibition female (individual replicates) R4 [2, 12]: 2.6%; Average inhibition female (%) [2, 10]: 2.2%"
O=C(O)C(F)(F)F.c1cc(CNCCN2CCNCC2)cc(-c2cccc(-c3nc4ccccc4[nH]3)c2)c1 [TCMDC-132859],12.0%,10.9%,24.9%,17.2%,18.5%,-13.9%,47.2%,0,0,0,-9.7%,–
Fc1ccc2[nH]c(-c3cccc(-c4cccc(CNCCN5CCNCC5)c4)c3)nc2c1.O=C(O)C(F)(F)F [TCMDC-132860],–,–,–,–,–,–,–,–,–,–,–,"Average inhibition male (%) [1, 3]: 74.7%; % inhibition male (individual replicates) R1 [1, 3]: 80.2%; % inhibition male (individual replicates) R3 [1, 3]: 48.0%; % inhibition male (individual replicates) R4 [1, 3]: 89.6%; HitlevelM [1, 4]: 3; Average inhibition female (%) [2, 3]: -9.5%; % inhibition female (individual replicates) R1 [2, 3]: 8.6%; % inhibition female (individual replicates) R3 [2, 3]: -31.9%; % inhibition female (individual replicates) R4 [2, 3]: -13.7%; HitlevelF [2, 5]: 0"
O=C(O)C(F)(F)F.c1cc(CNCCN2CCNCC2)cc(-c2ccc(-c3nc4ccccc4[nH]3)cc2)c1 [TCMDC-132861],–,–,–,–,–,–,–,–,–,–,–,"% inhibition male (individual replicates) R1 [1, 12]: -18.7%; % inhibition male (individual replicates) R4 [1, 12]: -15.3%; Average inhibition male (%) [1, 10]: -11.2%; % inhibition female (individual replicates) R1 [2, 12]: -3.1%; % inhibition female (individual replicates) R3 [2, 12]: -9.9%; % inhibition female (individual replicates) R4 [2, 12]: 9.1%; Average inhibition female (%) [2, 10]: 1.2%"
FC(F)(F)c1ccc2[nH]c(-c3ccc(-c4ccc(CNCCN5CCNCC5)cc4)s3)nc2c1.O=C(O)C(F)(F)F [TCMDC-132862],44.8%,46.6%,89.1%,20.7%,21.1%,13.2%,20.9%,–,–,–,56.6%,"HitlevelM [1, 7]: 2; HitlevelF [2, 8]: 0"
Fc1ccc2[nH]c(-c3cccc(-c4ccc(CNCCN5CCNCC5)cc4)c3)nc2c1.O=C(O)C(F)(F)F [TCMDC-132863],43.0%,23.0%,70.2%,14.3%,16.6%,-21.5%,42.6%,2,0,0,12.3%,–
Cc1cccc2nc(-c3cccc(-c4cccc(CNCCN5CCNCC5)c4)c3)[nH]c12.O=C(O)C(F)(F)F [TCMDC-132873],29.1%,24.4%,46.2%,9.7%,14.0%,9.9%,0.33%,0,0,0,9.9%,–
CN(c1ncc(-c2cccc(CNCc3ccccc3O)c2)cn1)C1CCCCC1 [TCMDC-133137],–,–,–,–,–,–,–,–,–,–,–,"% inhibition male (individual replicates) R1 [1, 12]: -18.7%; % inhibition male (individual replicates) R4 [1, 12]: -25.6%; Average inhibition male (%) [1, 10]: -17.4%; % inhibition female (individual replicates) R1 [2, 12]: 2.5%; % inhibition female (individual replicates) R3 [2, 12]: -2.1%; % inhibition female (individual replicates) R4 [2, 12]: 17.4%; Average inhibition female (%) [2, 10]: 2.8%"
Cl.c1cc(CNC2Cc3ccccc3C2)cc(-c2cnc(N3CCNCC3)nc2)c1 [TCMDC-133140],40.3%,37.9%,54.9%,27.8%,25.6%,8.0%,43.1%,–,–,–,14.1%,"HitlevelM [1, 7]: 2; HitlevelF [2, 8]: 0"
